Data published in ChEMBL document CHEMBL1933036, “Chromenones as potent bradykinin B1 antagonists” (Bioorg Med Chem Lett, 2012).

Experiments:
B1 bradykinin receptor [1] = target: T1, B1 bradykinin receptor (Oryctolagus cuniculus, UniProt P48748); assay: Antagonist activity at rabbit B1 bradykinin receptor expressed in CHO cells; type: functional, cell-based
T1 sequence (P48748 whole entry): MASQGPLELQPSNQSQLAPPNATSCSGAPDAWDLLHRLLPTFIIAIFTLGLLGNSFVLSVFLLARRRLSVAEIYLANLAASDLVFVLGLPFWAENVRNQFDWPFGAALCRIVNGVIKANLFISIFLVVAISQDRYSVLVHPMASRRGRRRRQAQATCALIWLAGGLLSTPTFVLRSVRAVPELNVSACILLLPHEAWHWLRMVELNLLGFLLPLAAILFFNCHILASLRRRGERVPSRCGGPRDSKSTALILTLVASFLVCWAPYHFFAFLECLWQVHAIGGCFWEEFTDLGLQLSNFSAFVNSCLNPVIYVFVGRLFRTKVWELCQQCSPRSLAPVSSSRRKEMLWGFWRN

B1 bradykinin receptor [2] = target: T2, B1 bradykinin receptor (Homo sapiens, UniProt P46663); assay: Antagonist activity at human B1 bradykinin receptor expressed in CHO cells by aqueorin-based calcium flux assay; type: functional, cell-based
T2 sequence (P46663 whole entry): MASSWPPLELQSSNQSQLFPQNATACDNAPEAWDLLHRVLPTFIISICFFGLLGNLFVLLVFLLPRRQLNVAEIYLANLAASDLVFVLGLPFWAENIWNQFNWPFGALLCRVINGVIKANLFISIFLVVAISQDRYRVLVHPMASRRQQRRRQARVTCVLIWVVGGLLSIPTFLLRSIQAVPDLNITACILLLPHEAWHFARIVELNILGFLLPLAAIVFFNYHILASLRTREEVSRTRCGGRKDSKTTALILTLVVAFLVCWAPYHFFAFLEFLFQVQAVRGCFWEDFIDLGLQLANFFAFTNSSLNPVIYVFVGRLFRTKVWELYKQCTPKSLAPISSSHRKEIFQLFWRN

B1 bradykinin receptor [3] = target: T2, B1 bradykinin receptor; assay: Binding affinity to human B1 bradykinin receptor
[4] = Plasma concentration in New Zealand white rabbit carrageenan-induced mechanical hyperalgesia model at 10 mg/kg, sc administered 60 mins before carrageenan challenge measured after 3 hrs; type: ADME, organism-based, Oryctolagus cuniculus; parameters: dose 10 mg/kg, route subcutaneous
[5] = Clearance in rat at 2 mg/kg, iv; type: ADME, organism-based; parameters: dose 2 mg/kg, route intravenous; conditions: in vivo
[6] = Volume of distribution at steady state in rat at 2 mg/kg, iv; type: ADME, organism-based; parameters: dose 2 mg/kg, route intravenous; conditions: in vivo, read-out: Vdss
[7] = Half life in rat at 2 mg/kg, iv; type: ADME, organism-based; parameters: dose 2 mg/kg, route intravenous; conditions: in vivo
[8] = Oral bioavailability in rat at 5 mg/kg; type: ADME, organism-based; conditions: in vivo
Oryctolagus cuniculus = assay: Analgesic activity in New Zealand white rabbit mechanical hyperalgesia model assessed as reduction in carrageenan-induced paw withdrawal at 10 mg/kg, sc administered 60 mins before carrageenan challenge measured after 3 hrs; type: functional; parameters: scale not given: the % may be the effect or the level left; conditions: route subcutaneous
[9] = Oral bioavailability in rat at 2 mg/kg; type: ADME, organism-based; conditions: in vivo

| Compound | IC50 (B1 bradykinin receptor [1]) | IC50 (B1 bradykinin receptor [2]) | Ki (B1 bradykinin receptor [3]) | further results |
| --- | --- | --- | --- | --- |
| O=C(N[C@@H]1CCCc2cc(CN3CCCCC3)ccc21)c1cccc(-c2coc3ccccc3c2=O)c1 | 0.476 µM | 0.112 µM |  |  |
| Cc1nn(-c2cccc(C(=O)N[C@@H]3CCCc4cc(CN5CCCCC5)ccc43)c2)c(=O)c2ccccc12 | > 6.46 µM | 3.4 µM |  |  |
| Cc1nn(-c2ccc(C(=O)N[C@H]3CCCc4cc(CN5CCCCC5)ccc43)cc2)c(=O)c2ccccc12 | 0.098 µM | 0.007 µM | 0.043 µM |  |
| O=C(N[C@@H]1CCCc2cc(CN3CCCCC3)ccc21)c1cccc(-c2coc3cccc(Cl)c3c2=O)c1 | 0.248 µM | 0.017 µM | 0.029 µM |  |
| O=C(N[C@@H]1CCCc2cc(CN3CCCCC3)ccc21)c1cccc(-c2coc3ccc(Cl)cc3c2=O)c1 | > 0.16 µM | 0.279 µM | 0.767 µM |  |
| O=C(N[C@@H]1CCCc2cc(CN3CCCCC3)ccc21)c1cccc(-c2coc3ccc(F)cc3c2=O)c1 | 0.393 µM | 0.078 µM | 0.398 µM |  |
| O=C(N[C@@H]1CCCc2cc(CN3CCCCC3)ccc21)c1cccc(-c2coc3cc(Cl)ccc3c2=O)c1 | > 0.8 µM | 0.799 µM |  |  |
| O=C(N[C@@H]1CCCc2cc(CN3CCCCC3)ccc21)c1cccc(-c2coc3c(Cl)cccc3c2=O)c1 | > 0.8 µM | 0.188 µM | 0.322 µM |  |
| O=C(N[C@H]1CCCc2cc(CN3CCCCC3)ccc21)c1ccc(-c2coc3ccccc3c2=O)cc1 | 0.122 µM |  |  |  |
| O=C(N[C@H]1CCCc2cc(CN3CCCCC3)ccc21)c1ccc(-c2coc3cccc(Cl)c3c2=O)cc1 | 0.03 µM | 0.004 µM | 0.004 µM | concentration at 3 h [4]: 379 nM; clearance [5]: 17.7 mL/min/kg; Vd [6]: 6.67 L/kg; half-life [7]: 4.5 h; bioavailability [8]: 43.6%; Activity (Oryctolagus cuniculus): 65% |
| O=C(N[C@H]1CCCc2cc(CN3CCCCC3)ccc21)c1ccc(-c2coc3ccc(Cl)cc3c2=O)cc1 | > 4 µM | > 4 µM | 1.62 µM |  |
| O=C(N[C@H]1CCCc2cc(CN3CCCCC3)ccc21)c1ccc(-c2coc3cc(Cl)ccc3c2=O)cc1 | > 0.8 µM | 0.264 µM | 0.042 µM |  |
| O=C(N[C@H]1CCCc2cc(CN3CCCCC3)ccc21)c1ccc(-c2coc3c(Cl)cccc3c2=O)cc1 | > 4 µM | 0.186 µM | 0.481 µM |  |
| O=C(N[C@H]1CCCc2cc(CN3CCCCC3)ccc21)c1ccc(-c2coc3cccc(F)c3c2=O)cc1 | 0.024 µM | 0.012 µM | 0.017 µM | clearance [5]: 25.5 mL/min/kg; Vd [6]: 8.83 L/kg; bioavailability [9]: 27.9%; half-life [7]: 3.8 h |
| Cc1cccc2occ(-c3ccc(C(=O)N[C@H]4CCCc5cc(CN6CCCCC6)ccc54)cc3)c(=O)c12 | 0.139 µM | 0.066 µM | 0.015 µM |  |
